# Test results as given in patent US4188378A, “Anticancer and antiviral activity of 9-β-D-arabinofuranosyl-2-fluoroadenine” (The United States of America as represented by the …, priority 1978, dated 1980).
# “Also recorded” adds a separate entry of the source. Like-named read-outs stand apart in the source and are kept apart here.
# Columns and labels:
# P388 leukemia cells = assay: F-AraATP levels in P388 leukemia cells of treated mice (HPLC); assay type: in vivo; settings: 80 mg/kg
# Protocol: (§1) Relative to activity against leukemia and antiviral activity, the following summation was found: Levels of F-AraATP in acid-soluble extracts prepared from L1210 and P388 leukemia cells in mice treated with 2-F-AraA (80 mg/kg) were determined by HPLC. […] Inhibition of DNA synthesis by 2-F-AraA (80 mg/kg) in L1210 and P388 leukemia cells in vivo was pronounced for 7 hours after treatment. […] 2-F-AraA was effective against P388 leukemia; % increase in median life span of mice treated with 80 and 52 mg/kg (q3hrsx8; days 1,5,9 after implant of 10^6 cells) was 170% and 150%.
# L1210 cells [1] = assay: Intracellular 2-F-AraATP levels in L1210 cells of treated mice; assay type: in vivo; settings: for level of F-AraATP in acid-soluble extracts (HPLC): L1210 cells, 80 mg/kg
# Text: (§2) It has been noted that the antitumor activity of the parent compound, 9-β-D-arabinofuranosyladenine (AraA), is enhanced by inhibition of adenosine deaminase and inhibition of DNA synthesis in tumor cells by AraA also is enhanced by concurrent inhibition of adenosine deaminase. […] This observation that 2-fluoroadenosine is not such a substrate for adenosine deaminase led to the synthesis of 9-β-D-arabinofuranosyl-2-fluoroadenine (2-F-AraA). […] The intracellular concentration of 2-F-AraATP in L1210 cells was 45, 156 and 220 nanomoles per 10^9 cells three hours after intraperitoneal treatment with 80, 150 and 400 mg/kg of 2-F-AraA.
# as §1
# Vaccinia Virus = assay type: cell-based
# adenosine deaminase = assay: Deamination by adenosine deaminase in vitro and in vivo; assay type: in vitro ADME
# Text: (§3) Inhibition of DNA polymerase is considered to be responsible for the biologic activity of AraA. The levels of F-AraATP attainable in leukemia L1210 cells in mice from the administration of 2-F-AraA are much higher than the level of AraATP atainable in these cells after administration of AraA. As a result of the maintenance of these levels of the inhibitor, F-AraATP, in them, the leukemia cells are effectively destroyed in animals. […] 2-F-AraA was also active against leukemia L1210 when administered by the oral route.
# as §2
# Leukemia L1210 = assay: Therapeutic activity against leukemia L1210 implanted i.p. in mice; assay type: in vivo
# Text: as §3
# ^a 10^5 L1210 ascites cells implanted i.p. on day 0.
# ^b Treatments reported were selected from a range of dose levels from
# lethally toxic to apparently nontoxic.
# more than 16% (1/6 treated mice) dying without gross evidence of
# progressive leukemia (splenomegaly), except those treated orally, in whic
# ^c i.p. = intraperitoneal; oral = drug administered directly into
# ^d % ILS = % increase in life span, compared to untreated control;
# excluding 60day survivors.
# ^e Based on median day of death in dying animals only. Figures in
# parentheses based on % survivors.
# 2-F-AraA was given i.p. or orally on the basis of average mouse body weight. Therapeutic activity based on observed increase in median life span of treated animals over untreated controls and on estimates of the number of viable L1210 cells present at the end of treatment is summarized in Table 2.
# L1210 cells [2] = assay: Macromolecular synthesis in L1210 cells in culture (radiolabel incorporation); assay type: cell-based; settings: for activity at 1 µg/mL / activity at 3 µg/mL / activity at 10 µg/mL / inhibition at 10 µg/mL: Mus musculus, L1210; for activity at 1 µg/mL: 1.0 μg/ml; for activity at 3 µg/mL: 3.0 μg/ml; for activity at 10 µg/mL: 10.0 μg/ml
# Protocol: ^a Inhibitor was added to L1210 cells growing in culture; radioactive
# substrate was added 30 min. later.
# hrs after addition of radioactive substrate to culture medium.
# ^b Incorporation of [C^3 H3 thymidine or [5^3 Huridine
# ^c Incorporation of [5^3 Huridine into RNA.
# ^d Incorporation of [4,5^3 HL-leucine into protein.
# [3] = system: Herpes Simplex Virus Type 1; assay: In vitro antiviral activity, Virus Rating; assay type: cell-based
# L1210 cells [4] = assay: DNA synthesis in L1210 cells in vivo; set-up: species or system mice; settings: 80 mg/kg, for 7 hours after treatment
# Protocol: Protein synthesis was less affected and RNA synthesis was not inhibited under the same experimental conditions.
# as §1
# [5] = system: Parainfluenza Virus Type 3; assay: In vitro antiviral activity, Virus Rating; assay type: cell-based; settings: average VR adjusted for number of Microtiter wells; VR ≤0.5 no significant activity
# Text: (§4) *Virus Rating (VR): A weighted measurement of antiviral activity which
# (§5) takes into account the degree of virusspecific cytopathogenic effect
# (§6) (cpe)inhibition, toxicity, and virus concentration, as determined by a
# (§7) modification of the methods of Ehrlich et al. (Ann. N.Y. Acad. Sci. 140:7
# (§8) 1965). In our experience, a VR≥1.0 indicates definite antiviral
# (§9) activity; a VR of 0.5-0.9 indicates moderate antiviral activity; and a VR
# (§10) ≤0.5 indicates no significant antiviral activity.
# (§11) ^+ Average VR adjusted for number of Microtiter wells employed.
# Rhinovirus Type 1A = assay: In vitro antiviral activity, Virus Rating; assay type: cell-based; settings: average VR adjusted for number of Microtiter wells; VR ≤0.5 no significant activity
# Text: as §4, §5, §6, §7, §8, §9, §10, §11
# Human Cytomegalovirus = assay: In vitro antiviral activity, Virus Rating; assay type: cell-based; settings: average VR adjusted for number of Microtiter wells; VR ≤0.5 no significant activity
# Text: as §4, §5, §6, §7, §8, §9, §10, §11
# [6] = average VR adjusted for number of Microtiter wells, VR≥1.0 definite activity
# [7] = Expt. 1, 100 mg/kg/dose q3h × 8, days 1,5,9, i.p.
# [8] = Expt. 2, 100 mg/kg/dose q6h × 4, days 1,5,9, i.p.
# [9] = Expt. 2, 150 mg/kg/dose q3h × 8, days 1,5,9, oral
# [10] = Expt. 2, 400 mg/kg/dose q12h × 2, days 1,5,9, i.p.
# [11] = second line of the same regimen: 100 mg/kg/dose q3h × 8, days 1,5,9, i.p.
# [12] = read-out: DNA synthesis, TdR-3H incorporation, Treated as % of Control
# [13] = read-out: DNA synthesis, UR-3H incorporation, Treated as % of Control
# [14] = read-out: Protein synthesis, Leu-3H incorporation, Treated as % of Control
# [15] = read-out: RNA synthesis, UR-3H incorporation, Treated as % of Control
# [16] = same experimental conditions as Table 1
smiles,measurement,setting,value
"Nc1nc(F)nc2c1ncn2[C@@H]1O[C@H](CO)[C@@H](O)[C@@H]1O [2-F-AraA, 9-β-D-arabinofuranosyl-2-fluoroadenine]",level of F-AraATP in acid-soluble extracts (HPLC),P388 leukemia cells; 1 to 6 hours after treatment,30-50 nmoles/gm cells
same,level of F-AraATP in acid-soluble extracts (HPLC),P388 leukemia cells; 9 hours after treatment,none was detected
same,2-F-AraATP in L1210 cells,L1210 cells [1]; 9 and 18 hours after a single dose of 80 and 150 mg/kg,not found
same,2-F-AraATP in L1210 cells,L1210 cells [1]; 18 hours after a dose of 400 mg/kg,significant levels were present
same,intracellular pools of 2-F-AraATP in L1210 cells,"L1210 cells [1]; BDFl mice treated with 2-F-AraA alone, versus AraATP from AraA plus adenosine deaminase inhibitor",comparable
same,level of F-AraATP in acid-soluble extracts (HPLC),L1210 cells [1]; 1 to 6 hours after treatment,30-50 nmoles/gm cells
same,level of F-AraATP in acid-soluble extracts (HPLC),L1210 cells [1]; 9 hours after treatment,none was detected
same,"levels of F-AraATP attainable in leukemia L1210 cells in mice, compared with AraATP after AraA",L1210 cells [1]; after administration of 2-F-AraA,much higher
same,Virus Rating (VR),Vaccinia Virus; [6],1.3
same,activity against the virus,Vaccinia Virus; grown in H.Ep.-2 cells in culture,demonstrated activity
same,deamination by adenosine deaminase,adenosine deaminase,not a substrate for adenosine deaminase; also recorded: not deaminated; also recorded: completely resistant to deamination
same,increase in life span of animals dying of leukemia,"Leukemia L1210; 100 mg/kg i.p. once every three hours on days 1, 5, 9, 10^5 cells, 4 of 6 animals",123-155%
same,animals deemed recovered from the disease,"Leukemia L1210; 100 mg/kg i.p. once every three hours on days 1, 5, 9, of 6 animals",two
same,therapeutic result compared with the 100 mg/kg q3h regimen,"Leukemia L1210; 400 mg/kg twice a day on days 1, 5, 9",Comparable results
same,therapeutic activity against L1210 leukemia,"Leukemia L1210; 2-F-AraA alone, BDFl mice, 10^5 cells i.p.",reproducible therapeutic activity; also recorded: therapeutically effective
same,60-Day Survivors,Leukemia L1210; [7],2/6
same,Estimated No. L1210 Cells Surviving Therapy (based on median day of death),Leukemia L1210; [7],4 × 10^4
same,"Estimated No. L1210 Cells Surviving Therapy (in parentheses, based on % survivors)",Leukemia L1210; [7],1.1
same,Median % ILS,Leukemia L1210; [7],123%
same,"Median Day of Death (Dying Mice Only), Treated","Leukemia L1210; Expt. 1, 100 mg/kg/dose q3h × 8, days 1,5,9, i.p., control 8.5",19
same,60-Day Survivors,Leukemia L1210; [8],0/6
same,Estimated No. L1210 Cells Surviving Therapy (based on median day of death),Leukemia L1210; [8],3 × 10^6
same,Median % ILS,Leukemia L1210; [8],83%
same,"Median Day of Death (Dying Mice Only), Treated","Leukemia L1210; Expt. 2, 100 mg/kg/dose q6h × 4, days 1,5,9, i.p., control 9",16.5
same,Estimated No. L1210 Cells Surviving Therapy (based on median day of death),Leukemia L1210; [9],2 × 10^7
same,Median % ILS,Leukemia L1210; [9],66%
same,"Median Day of Death (Dying Mice Only), Treated","Leukemia L1210; Expt. 2, 150 mg/kg/dose q3h × 8, days 1,5,9, oral, control 9",15
same,60-Day Survivors,Leukemia L1210; [10],1/6
same,Estimated No. L1210 Cells Surviving Therapy (based on median day of death),Leukemia L1210; [10],2 × 10^3
same,"Estimated No. L1210 Cells Surviving Therapy (in parentheses, based on % survivors)",Leukemia L1210; [10],1.8
same,Median % ILS,Leukemia L1210; [10],144%
same,"Median Day of Death (Dying Mice Only), Treated","Leukemia L1210; Expt. 2, 400 mg/kg/dose q12h × 2, days 1,5,9, i.p., control 9",22
same,treated mice dying without gross evidence of progressive leukemia (splenomegaly),Leukemia L1210; i.p. treatments reported in Table 2 (1/6 treated mice),≤ 16%
same,toxicity over the dose range tested,Leukemia L1210; mice treated orally,no toxic levels
same,activity against leukemia L1210,Leukemia L1210; oral route,some therapeutic activity; also recorded: active
same,60-Day Survivors,Leukemia L1210; [11],1/6
same,Estimated No. L1210 Cells Surviving Therapy (based on median day of death),Leukemia L1210; [11],5 × 10^2
same,"Estimated No. L1210 Cells Surviving Therapy (in parentheses, based on % survivors)",Leukemia L1210; [11],1.8
same,Median % ILS,Leukemia L1210; [11],155%
same,"Median Day of Death (Dying Mice Only), Treated","Leukemia L1210; second line of the same regimen: 100 mg/kg/dose q3h × 8, days 1,5,9, i.p., control 9",23
same,DNA synthesis in L1210 cells in culture,L1210 cells [2],inhibited DNA synthesis
same,inhibition of RNA synthesis,L1210 cells [2]; 10 μg/ml,generally not inhibited
same,activity at 1 µg/mL,L1210 cells [2]; [12],102%
same,activity at 1 µg/mL,L1210 cells [2]; [13],84%
same,activity at 1 µg/mL,L1210 cells [2]; [14],119%
same,activity at 1 µg/mL,L1210 cells [2]; [15],135%
same,activity at 3 µg/mL,L1210 cells [2]; [12],49%
same,activity at 3 µg/mL,L1210 cells [2]; [13],36%
same,activity at 3 µg/mL,L1210 cells [2]; [14],86%
same,activity at 3 µg/mL,L1210 cells [2]; [15],163%
same,activity at 10 µg/mL,L1210 cells [2]; [12],18%
same,activity at 10 µg/mL,L1210 cells [2]; [13],11%
same,activity at 10 µg/mL,L1210 cells [2]; [14],66%
same,activity at 10 µg/mL,L1210 cells [2]; [15],137%
same,inhibition at 10 µg/mL,"L1210 cells [2]; 10 μg/ml, read-out: inhibition of DNA synthesis",90%
same,inhibition at 10 µg/mL,"L1210 cells [2]; 10 μg/ml, read-out: inhibition of protein synthesis",30%
same,Protein synthesis in L1210 cells in culture,L1210 cells [2]; [16],less affected
same,RNA synthesis in L1210 cells in culture,L1210 cells [2]; [16],not inhibited
same,activity against the virus,[3],demonstrated activity
same,Virus Rating (VR),[3]; [6],1.4
same,inhibition of DNA synthesis in vivo,L1210 cells [4],pronounced
same,Virus Rating (VR),[5],0
same,Virus Rating (VR),Rhinovirus Type 1A,0
same,Virus Rating (VR),Human Cytomegalovirus,0.3
